Test results reported in patent US6387417B1, “Bactericide against vancomycin resistant enterococcus” (priority 2000, dated 2002).
Where two headings read alike, the source gives them in different places.

Tests used:
[1] = system: Enterococcus gallinarum KIH-241; assay: MIC of antibiotics for the strain used; format: cell-based
[2] = system: Enterococcus faecalis KIH-C233; assay: MIC of antibiotics for the strain used; format: cell-based; settings: E. faecalis KIH-C233, collected from a patient
[3] = system: Enterococcus faecium KIH-234; assay: MIC of antibiotics for the strain used; format: cell-based; settings: KIH234, E. faecium KIH-234, collected from a patient
[4] = system: Enterococcus faecium KIH-237; assay: MIC of antibiotics for the strain used; format: cell-based; settings: KIH237, E. faecium KIH-237, collected from an imported chicken
[5] = expected maximum; cited from earlier work
[6] = Solubility of hinokitiol in liquid carrier; format: physicochemical
[7] = Enterococcus gallinarum, E. gallinarum KIH-241, collected from a chicken grown in Japan, read-out: MIC
[8] = Enterococcus faecalis, KIHC233, read-out: MIC

SMILES | MIC [1, 7] [µg/mL] | MIC [2, 8] [µg/mL] | MIC [3] [µg/mL] | MIC [4] [µg/mL] | other results
CC1(C)S[C@@H]2[C@H](NC(=O)[C@H](N)c3ccccc3)C(=O)N2[C@H]1C(=O)O [ABPC, aminobenzylpenicillin] | 4 | 1 | 16 | 4 | –
CO[C@@]1(NC(=O)CSCC#N)C(=O)N2C(C(=O)O)=C(CSc3nnnn3C)CS[C@@H]21 [CMZ, cefmetazole] | > 32 | > 32 | > 32 | > 32 | –
CC[C@H]1OC(=O)[C@H](C)[C@@H](O[C@H]2C[C@@](C)(OC)[C@@H](O)[C@H](C)O2)[C@H](C)[C@@H](O[C@@H]2O[C@H](C)C[C@H](N(C)C)[C@H]2O)[C@](C)(O)C[C@@H](C)C(=O)[C@H](C)[C@@H](O)[C@]1(C)O [EM, erythromycin] | > 1 | > 32 | > 32 | > 32 | –
C[C@@H](O)[C@H]1C(=O)N2C(C(=O)O)=C(SCCN=CN)C[C@H]12 [IPM, imipenem] | – | – | – | – | MIC ([1]; E. gallinarum KIH-241, collected from a chicken grown in Japan): 1 µg/mL; MIC [2]: 1 µg/mL
CC1(C)S[C@@H]2[C@H](NC(=O)Cc3ccccc3)C(=O)N2[C@H]1C(=O)O [PCG, benzylpenicillin] | 1 | 4 | 16 | 16 | –
CN[C@H](CC(C)C)C(=O)N[C@H]1C(=O)N[C@@H](CC(N)=O)C(=O)N[C@H]2C(=O)N[C@H]3C(=O)N[C@H](C(=O)N[C@H](C(=O)O)c4cc(O)cc(O)c4-c4cc3ccc4O)[C@H](O)c3ccc(c(Cl)c3)Oc3cc2cc(c3O[C@@H]2O[C@H](CO)[C@@H](O)[C@H](O)[C@H]2O[C@H]2C[C@](C)(N)[C@H](O)[C@H](C)O2)Oc2ccc(cc2Cl)[C@H]1O [VCM, vancomycin] | – | 2 | 0.5 | 500 | MIC ([1]; Enterococcus gallinarum, GALLINARUM): 8 µg/mL; concentration of vancomycin in blood at maximum [5]: no more than 6 μg/ml
CC(C)c1cccc(=O)c(O)c1 [hinokitiol, Hinokitiol] | – | – | – | – | hinokitiol content achievable in the composition ([6]; alcohol as liquid carrier, without aloe extract and the like extract): up to 5 % by mass; hinokitiol concentration obtainable in aqueous solution ([6]; water with surface active agent (glycerin fatty acid ester) and/or botanical emulsifier (quillaia saponin)): up to 10 % by mass; hinokitiol concentration obtainable in aqueous solution ([6]; water, combined with the aloe extract and like extracts): about 1 % by mass
